Molecules are shown by their SMILES.

Experimental findings from patent publication US20240026086A1, “POLYPHENOL DERIVATIVE AND POLYMER MATERIAL” (TOPPAN INC., priority 2020, published 2024) are described below.

This test relates to E. coli. The experiment in a line: Antibacterial test of coating films on glass substrate in accordance with JIS 22801. In kind it is cell-based. As to conditions: against E. coli. As for the experimental part: The polyphenol derivatives (polyphenol derivatives 1 to 4) in Examples 1 to 4 and the tannic acid in Comparative Example 1 were each applied by the above method onto a 5 cm×5 cm glass substrate at a weight of 1.2 mg/cm 2 to yield a coating film. The glass substrate samples in Examples and Comparative Example each having the coating film formed by the above method were subjected to antibacterial test by a method in accordance with JIS 22801, and antibacterial activity values (against E. coli) were determined.

`O=C(OC[C@H]1O[C@@H](OC(=O)c2cc(O)c(O)c(OC(=O)c3cc(O)c(O)c(O)c3)c2)[C@H](OC(=O)c2cc(O)c(O)c(OC(=O)c3cc(O)c(O)c(O)c3)c2)[C@@H](OC(=O)c2cc(O)c(O)c(OC(=O)c3cc(O)c(O)c(O)c3)c2)[C@@H]1OC(=O)c1cc(O)c(O)c(OC(=O)c2cc(O)c(O)c(O)c2)c1)c1cc(O)c(O)c(OC(=O)c2cc(O)c(O)c(O)c2)c1` [compound 1, tannic acid]: where the note is “coating film 1.2 mg/cm 2 on 5 cm×5 cm glass substrate”, the “Antibacterial test (antibacterial activity value)” value was more than 5.8. In addition, where the note is “coating film”, the “antibacterial activity (in words)” value is recorded as “antibacterial activity was sufficiently achieved”.
